Measurements from patent US20190194148A1, “TETRAZOLE-CONTAINING 1,2-CYCLOPROPANE-CARBOXAMIDES” (Bayer Pharma Aktiengesellschaft, priority 2017, published 2019).
Read-outs that look alike come from different tables or passages of the source.

Assays:
human B1 receptor = molecular target: T1, human B1 receptor (Homo sapiens, UniProt P46663); test: Calcium flux assay (FLIPR) with recombinant CHO-K1 cells expressing human B1 receptor; format: cell-based
T1 construct: host or cells: CHO-K1
T1 sequence (P46663 1-353): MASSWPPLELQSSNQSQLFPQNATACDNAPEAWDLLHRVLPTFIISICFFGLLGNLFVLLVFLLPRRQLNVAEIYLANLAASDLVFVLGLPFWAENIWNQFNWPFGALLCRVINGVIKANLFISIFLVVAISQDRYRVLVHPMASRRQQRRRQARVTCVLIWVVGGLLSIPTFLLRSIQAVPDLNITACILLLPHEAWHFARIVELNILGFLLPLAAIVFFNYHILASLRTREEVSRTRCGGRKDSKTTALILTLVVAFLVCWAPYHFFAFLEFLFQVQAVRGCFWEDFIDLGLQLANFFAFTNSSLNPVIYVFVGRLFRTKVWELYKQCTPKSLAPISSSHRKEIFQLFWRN
Procedure, shortened: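 Indicator-loaded CHO-K1 cells expressing human B1 receptor were pre-incubated with compound (8 concentrations, triplicate, 1% DMSO) for 30 min at 28° C, in assay buffer with or without 0.1% BSA (hB1 IC50 vs free IC50). They were then challenged with Lys-(Des-Arg)-bradykinin from plates at 3.5×EC90, with peak FLIPR fluorescence read at 538 nm. IC50 was fitted from % response between DMSO and full block by 20 μM Lys-(Des-Arg-Leu)-bradykinin.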

[1] = molecular target: T2, native human B1 receptors (Homo sapiens, UniProt P46663); test: Calcium flux assay (FLIPR) with IMR-90 human fibroblasts for Bradykinin B1 receptor antagonist; format: cell-based; details: IMR-90 human foetal lung fibroblasts after induction with human IL-1; 0.1% BSA in assay buffer; read-out: hB1 IC50 IMR90
T2 construct: which express native human B1 receptors after induction with human IL-1; Coriell Institute; host or cells: IMR-90 human foetal lung fibroblasts, induced with human IL-1beta
T2 sequence (P46663 1-353): T1 sequence (P46663 1-353)
Method: Calcium Flux Assay (FLIPR) with Human Fibroblasts for Bradykinin B1 Receptor Antagonist (hB1 IMR-90 IC50)
The Calcium flux Assay was carried out utilising IMR-90 human foetal lung fibroblasts (American Type Culture Collection, Rockville, Md.; and Coriell Institute, Camden, N.J.), which express native human B1 receptors after induction with human IL-1[…].
The fibroblasts were cultured in complete growth media comprised of Dulbecco's modified Eagle's medium (DMEM; Sigma) containing 10% foetal bovine serum, 4 mM L-glutamine, and 1% nonessential amino acids. The cells were maintained in a humidified atmosphere with 5% CO2 at 37° C. and were sub-cultured at a ratio of 1:3, every other day.
For the assay, IMR-90 fibroblasts were harvested using TrypLE Express (GIBCO/Invitrogen) and seeded into 384-well plates (Corning Cellbinding Surface, Cat. 3683) at a density of 15000 cells/well. The following day, cells were treated with 0.35 ng/mL human IL-1[…] in 10% FBS/MEM for 3 h to up-regulate B1 receptors. Induced cells were loaded with fluorescent calcium indicator by incubation with 2.5 μM Fluo-4/AM (Invitrogen) at 37° C., 5% CO2 for 2 h in the presence of 2.5 mM probenecid in 1% FBS/MEM. Extracellular dye was removed by washing with assay buffer (2.5 mM probenecid and 0.1% BSA in 20 mM HEPES/HBSS without bicarbonate or phenol red, pH 7.5). Example compounds were assayed at 8 concentrations in triplicate. […] A peptide antagonist Lys-(Des-Arg-Leu)-Bradykinin (Bachem, Brackley) at 20 µM was used to determine the full inhibition as control. IC50 values were determined by the same way described for the FLIPR assay with recombinant cells.

IL-6 secretion = test: Bradykinin B1 receptor agonist-induced secretion of IL-6 in human IMR-90 cells; format: cell-based; details: IMR-90 cells stimulated with 0.1 μM Lys-[Des-Arg9]Bradykinin and 0.1 μM Sar-[D-Phe8]-des-Arg9-Bradykinin for 5 hours
Description: (§1) Inhibitory Activity on Bradykinin B1 Receptor Agonist-Induced Secretion of IL-6 and IL-8 in Human IMR-90 Cells
(§2) The effect of the example compounds on cytokine secretion has been investigated in the human fetal lung fibroblast IMR-90 cell line. Here the induction of the cytokine secretion was induced by the Bradykinin B1 receptor agonists Lys-[Des-Arg9]Bradykinin and Sar-[D-Phe8]-des-Arg9-Bradykinin leading to the activation of the Bradykinin B1 receptor-driven signaling pathway.
(§3) IMR-90 cells were cultured in Eagle's Minimum Essential Medium (EMEM) containing 2 mM L-glutamine, 1 g/L glucose, 1.5 g/L NaHCO3, 1 mM sodium pyruvate and non-essential amino acids (ATCC, 30-2003™) supplemented with 10% FBS (Biochrom, S0615) and 50 U/mL Penicillin, 50 μg/mL Streptomycin (PAA, P11-010). The assay was performed in EMEM and a cell density of […] IMR-90 cells/96-well. The example compounds have been serial diluted in 100% DMSO and evaluated at 8 different concentrations within the range of 3 nM and 10 μM and a final DMSO concentration of 0.4%. […] The amount of IL-6 and IL-8 in the supernatant was determined using the Human Prolnflammatory 9-Plex (MSD, K15007B) according to manufacturer's instruction. The cell viability was measured using the CellTiter-Glo Luminescent Assay (Promega, G7571) following the manufacturers protocol. […]

IL-8 secretion = test: Bradykinin B1 receptor agonist-induced secretion of IL-8 in human IMR-90 cells; format: cell-based; details: IMR-90 cells stimulated with 0.1 μM Lys-[Des-Arg9]Bradykinin and 0.1 μM Sar-[D-Phe8]-des-Arg9-Bradykinin for 5 hours
Description: as §1, §2, §3

IMR-90 cells = test: Cell viability of stimulated IMR-90 cells (CellTiter-Glo); format: cell-based, human
Method: IMR-90 cells were cultured in Eagle's Minimum Essential Medium (EMEM) containing 2 mM L-glutamine, 1 g/L glucose, 1.5 g/L NaHCO3, 1 mM sodium pyruvate and non-essential amino acids (ATCC, 30-2003™) supplemented with 10% FBS (Biochrom, S0615) and 50 U/mL Penicillin, 50 μg/mL Streptomycin (PAA, P11-010). The assay was performed in EMEM and a cell density of […] IMR-90 cells/96-well. The example compounds have been serial diluted in 100% DMSO and evaluated at 8 different concentrations within the range of 3 nM and 10 μM and a final DMSO concentration of 0.4%. The IMR-90 cells have been incubated with the respective concentration of the example compound for 30 min. The enhanced secretion of IL-6 and IL-8 was induced by the stimulation of these cells with 0.1 μM Lys-[Des-Arg9]Bradykinin (Tocris, 3225) and 0.1 μM Sar-[D-Phe8]-des-Arg9-Bradykinin (Tocris, 3230) for 5 hours at 37° C. and 5% CO2. Further, cells have been treated with Lys-[Des-Arg9] Bradykinin and Sar-[D-Phe8]-des-Arg9-Bradykinin as neutral control and with 0.1% DMSO as inhibitor control. The amount of IL-6 and IL-8 in the supernatant was determined using the Human Prolnflammatory 9-Plex (MSD, K15007B) according to manufacturer's instruction. The cell viability was measured using the CellTiter-Glo Luminescent Assay (Promega, G7571) following the manufacturers protocol.

[2] = presence of 0.1% BSA in assay buffer, read-out: hB1 IC50
[3] = absence of 0.1% BSA in assay buffer, read-out: hB1 free IC50

IC50 (human B1 receptor; [2]) | IC50 [1] | IC50 (human B1 receptor; [3]) | IC50 (IL-6 secretion) | IC50 (IL-8 secretion) | SMILES | effect on the cell viability (IMR-90 cells)
10 nM | 9 nM | – | – | – | Cc1cccc(C2CC2C(=O)Nc2ccc(-c3ccc(OC(C)C)nc3)c(-c3nnn[nH]3)c2)c1 (racemic) [Example 78, N-[4-(6-isopropoxypyridin-3-yl)-3-(1H-tetrazol-5-yl)phenyl]-2-(3-methylphenyl)cyclopro-panecarboxamide] | –
– | 44 nM | 12 nM | – | – | CCOc1ccc(-c2c(F)cc(NC(=O)C3CC3c3ccc(Cl)cc3)cc2-c2nnn[nH]2)cn1 (racemic) [Example 61, 2-(4-chlorophenyl)-N-[4-(6-ethoxypyridin-3-yl)-3-fluoro-5-(1H-tetrazol-5-yl)phenyl]cyclopropane-carboxamide] | –
10 nM | 22 nM | 19 nM | – | – | COc1ccc(-c2cc(F)c(NC(=O)C3CC3c3cccc(C)c3)cc2-c2nnn[nH]2)cc1 (racemic) [Example 55, N-[5-Fluoro-4′-methoxy-2-(1H-tetrazol-5-yl)biphenyl-4-yl]-2-(3-methylphenyl)cyclopro-panecarboxamide] | –
37 nM | 78 nM | 41 nM | – | – | Cc1cccc(C2CC2C(=O)Nc2cc(-c3nnn[nH]3)c(-c3ccc(C(F)(F)F)nc3)cc2O)c1 (racemic) [Example 52, N-{2-Hydroxy-5-(1H-tetrazol-5-yl)-4-[6-(trifluoromethyl)pyridin-3-yl]phenyl}-2-(3-methylphenyl)cyclopro-panecarboxamide] | –
11 nM | 8 nM | 3 nM | – | – | CCOc1ccc(-c2cc(O)c(NC(=O)C3CC3c3cccc(C)c3)cc2-c2nnn[nH]2)cn1 (racemic) [Example 51, N-[4-(6-Ethoxypyridin-3-yl)-2-hydroxy-5-(1H-tetrazol-5-yl)phenyl]-2-(3-methylphenyl)cyclopro-panecarboxamide] | –
27 nM | 20 nM | – | – | – | COc1ccc(-c2ccc(NC(=O)C3CC3C3CCCCC3)cc2-c2nnn[nH]2)cc1OC (single isomer, unassigned) [Example 14, 2-Cyclohexyl-N-[3′,4′-dimethoxy-2-(1H-tetrazol-5-yl)biphenyl-4-yl]cyclopropane-carboxamide] | –
22 nM | 22 nM | 14 nM | – | – | CCOc1ccc(-c2ccc(NC(=O)C3(C)CC3c3ccccc3)cc2-c2nnn[nH]2)cn1 (racemic) [Example 21, [4-(6-Ethoxypyridin-3-yl)-3-(1H-tetrazol-5-yl)phenyl]-1-methyl-2-phenylcyclopropane-carboxamide] | –
8 nM | 8 nM | 12 nM | – | – | COc1ccc(-c2ccc(NC(=O)C3CC3c3cccc(Cl)c3)cc2-c2nnn[nH]2)cc1OC (racemic) [Example 8, 2-(3-chlorophenyl)-N-[3′,4′-dimethoxy-2-(1H-tetrazol-5-yl)biphenyl-4-yl]cyclo-propanecarboxamide] | –
5 nM | 25 nM | – | – | – | COc1ccc(-c2ccc(NC(=O)C3CC3C3CCC(C)CC3)cc2-c2nnn[nH]2)cc1OC (racemic) [Example 15, N-[3′,4′-dimethoxy-2-(1H-tetrazol-5-yl)biphenyl-4-yl]-2-(4-methylcyclohexyl)cyclo-propanecarboxamide] | –
25 nM | – | 10 nM | 192 nM | 164 nM | CC(C)(C)c1cn(-c2ccc(NC(=O)C3CC3c3ccc(Cl)cc3)cc2-c2nnn[nH]2)cn1 (racemic) [Example 48, N-[4-(4-tert-butyl-1H-imidazol-1-yl)-3-(1H-tetrazol-5-yl)phenyl]-2-(4-chlorophenyl)cyclo-propanecarboxamide] | no effect
– | 10 nM | 6 nM | – | – | CCOc1ccc(-c2ccc(NC(=O)C3CC3c3cccc(Cl)c3)cc2-c2nnn[nH]2)cn1 (racemic) [Example 19, 2-(3-Chlorophenyl)-N-[4-(6-ethoxypyridin-3-yl)-3-(1H-tetrazol-5-yl)phenyl]cyclopro-panecarboxamide] | –
37 nM | 63 nM | 15 nM | – | – | CCOc1ccc(-c2cc(C)c(NC(=O)C3CC3c3ccc(Cl)cc3)cc2-c2nnn[nH]2)cn1 (racemic) [Example 64, 2-(4-Chlorophenyl)-N-[4-(6-ethoxypyridin-3-yl)-2-methyl-5-(1H-tetrazol-5-yl)phenyl]cyclopropane-carboxamide] | –
97 nM | 12 nM | 5 nM | – | – | CCOc1ccc(-c2ccc(NC(=O)C3CC3c3ccc(Cl)cc3)cc2-c2nnn[nH]2)cn1 (racemic) [Example 17, 2-(4-Chlorophenyl)-N-[4-(6-ethoxypyridin-3-yl)-3-(1H-tetrazol-5-yl)phenyl]cyclopro-panecarboxamide] | –
15 nM | 6 nM | 5 nM | – | – | CCOc1ccc(-c2ccc(NC(=O)C3CC3c3cccc(C)c3)cc2-c2nnn[nH]2)cn1 (racemic) [Example 18, N-[4-(6-Ethoxypyridin-3-yl)-3-(1H-tetrazol-5-yl)phenyl]-2-(3-methylphenyl)cyclopro-panecarboxamide] | –
